From patent US8367366B2, “Methods and kits for quantitative methyltransferase and demethylase measurements” (The Board of Trustees of the University of Arkansas, priority 2010, dated 2013) come the findings set out here.

The target in this assay is LSD1 (Homo sapiens, UniProt O60341). Description: biochemical. The note with it: read-out: inhibits LSD1 activity.

Description: MassSQUIRM Lysine residues were chemically dimethylated using a reductive methylation technique adapted from Rayment, et al (21). […] This reaction was incubated for 2 hours at 4° C. Fresh aliquots of borane dimethylamine and formaldehyde were added and the reaction was again incubated at 4° C. for two hours. A final aliquot of borane dimethylamine was added and the reaction was incubated at 4° C. for ˜16 hours. The reaction was quenched with 80 mM Tris-Cl, pH 7.5. Peptides were incubated with POROS R220 micron beads (Applied Biosystems), collected with a C18 ZipTip™ (Millipore) and spotted for MALDI analysis in 2,5-dihydroxybenzoic acid. Mass spectra of peptides were collected with a MALDI-prOTOF mass spectrometer (PerkinElmerSciex) (61, 62). Spectra were viewed and peak areas extracted using MoverZ™ software (Genomic Solutions). Reaction products were verified by MS^2 with a Thermo LTQ XL mass spectrometer coupled to a NanoLC-2D™ liquid chromatography system (Eksigent).
Demethylase Assay. […] The reaction proceeded for 2 hr at 37° C. Reaction products were collected with POROS R2 20 micron beads for 15 minutes at room temperature, loaded into a C18 ZipTip, eluted in 40 μL 70% acetonitrile/0.1% TFA, lyophilized, and subjected to MassSQUIRM as described above.
LSD1 Inhibition Assay. […]

Regarding `NNCCc1ccccc1` [phenylethylhydrazine], the inhibition at 16700 µM came to 96%.
